According to patent US11530180B2, “Alpha-5 beta-1 inhibitors” (The Regents of the University of California, priority 2019, dated 2022):
pIC50: −log10 of the molar value.

Target: alpha-5-beta-1 integrin (Homo sapiens (Human), UniProt P05556+P08648)
Test: alpha-5-beta-1 integrin cell adhesion assay (SW480 cells on human plasma fibronectin)
Assay type: cell-based
Method: Cell Adhesion Assay. Evaluation of cell attachment to extracellular matrix proteins was performed as previously described by Yokosaki et al, J. Biol. Chem., 271: (39): 24144-24150 (1996). Briefly, wells of non-tissue culture-treated polystyrene 96-well flat-bottom microtiter plates (Linbro/Titertek, Flow Laboratories, McLean, Va.) were coated by incubation with 100 μl of each substrate in PBS at 37° C. for 1 hour. 96-well flat-bottomed tissue culture plates were coated with human plasma fibronectin for 1 hour at 37° C. After incubation, wells were washed with PBS, then blocked with 1% bovine serum albumin (BSA) for one hour. Control wells were filled with 1% BSA. SW480 cells were detached using 10 mM EDTA and resuspended in serum-free DMEM. For blocking experiments, cells were incubated with 10 μg/ml of the antibody for 15 minutes at 4° C. before plating. The plates were centrifuged at 10 g for 5 minutes before incubation for 1 hour at 37° C. in humidified 5% CO2. Nonadherent cells were removed by centrifugation (top side down) at 10 g for 5 minutes. Attached cells were stained with 0.5% crystal violet, and the wells were washed with PBS. The relative number of cells in each well was evaluated after solubilization in 40 μl of 2% Triton X-100 by measuring absorbance at 595 nm in a microplate reader. All determinations were carried out in triplicate.
Table 2 provides the IC50 (nM) results of an alpha-5-beta-1 integrin cell adhesion assay for the compounds shown. The assay was performed following the procedures set forth in Example 1 and as described by Yokosaki et al, J. Biol. Chem., 271: (39): 24144-24150 (1996).

[1] = cell adhesion assay, SW480 cells, fibronectin-coated plates, Table 1
[2] = alpha-5-beta-1 integrin cell adhesion assay following Example 1, Table 2

Sequence of alpha-5-beta-1 integrin (P08648 42-894): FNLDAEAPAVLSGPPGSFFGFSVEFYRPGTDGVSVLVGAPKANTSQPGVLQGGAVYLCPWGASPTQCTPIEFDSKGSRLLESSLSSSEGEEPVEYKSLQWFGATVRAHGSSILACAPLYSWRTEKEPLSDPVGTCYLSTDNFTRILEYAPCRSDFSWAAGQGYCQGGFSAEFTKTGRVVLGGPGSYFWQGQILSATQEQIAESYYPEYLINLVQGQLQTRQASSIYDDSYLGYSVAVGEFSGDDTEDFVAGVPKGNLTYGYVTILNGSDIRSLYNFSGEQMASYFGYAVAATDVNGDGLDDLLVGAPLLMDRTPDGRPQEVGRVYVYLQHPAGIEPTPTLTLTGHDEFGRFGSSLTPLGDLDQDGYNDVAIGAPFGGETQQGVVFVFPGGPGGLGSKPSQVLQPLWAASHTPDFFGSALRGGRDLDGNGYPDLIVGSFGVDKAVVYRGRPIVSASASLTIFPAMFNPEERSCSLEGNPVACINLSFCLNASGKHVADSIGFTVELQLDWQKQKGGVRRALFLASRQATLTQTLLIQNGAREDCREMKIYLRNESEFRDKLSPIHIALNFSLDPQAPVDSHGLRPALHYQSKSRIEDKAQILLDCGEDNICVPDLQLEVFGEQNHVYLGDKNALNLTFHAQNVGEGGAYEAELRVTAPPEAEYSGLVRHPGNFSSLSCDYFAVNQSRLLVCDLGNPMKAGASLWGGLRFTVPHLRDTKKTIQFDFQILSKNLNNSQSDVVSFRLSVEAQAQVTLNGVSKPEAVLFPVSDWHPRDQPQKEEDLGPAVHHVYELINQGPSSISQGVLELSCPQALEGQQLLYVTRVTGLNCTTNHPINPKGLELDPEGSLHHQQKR
Sequence of alpha-5-beta-1 integrin (P08648 895-1049 partner): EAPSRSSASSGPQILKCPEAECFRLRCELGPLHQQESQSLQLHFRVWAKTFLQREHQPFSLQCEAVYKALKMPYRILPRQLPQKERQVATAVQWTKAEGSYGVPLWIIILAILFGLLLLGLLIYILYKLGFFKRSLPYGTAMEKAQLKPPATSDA
Sequence of alpha-5-beta-1 integrin (P05556 21-798): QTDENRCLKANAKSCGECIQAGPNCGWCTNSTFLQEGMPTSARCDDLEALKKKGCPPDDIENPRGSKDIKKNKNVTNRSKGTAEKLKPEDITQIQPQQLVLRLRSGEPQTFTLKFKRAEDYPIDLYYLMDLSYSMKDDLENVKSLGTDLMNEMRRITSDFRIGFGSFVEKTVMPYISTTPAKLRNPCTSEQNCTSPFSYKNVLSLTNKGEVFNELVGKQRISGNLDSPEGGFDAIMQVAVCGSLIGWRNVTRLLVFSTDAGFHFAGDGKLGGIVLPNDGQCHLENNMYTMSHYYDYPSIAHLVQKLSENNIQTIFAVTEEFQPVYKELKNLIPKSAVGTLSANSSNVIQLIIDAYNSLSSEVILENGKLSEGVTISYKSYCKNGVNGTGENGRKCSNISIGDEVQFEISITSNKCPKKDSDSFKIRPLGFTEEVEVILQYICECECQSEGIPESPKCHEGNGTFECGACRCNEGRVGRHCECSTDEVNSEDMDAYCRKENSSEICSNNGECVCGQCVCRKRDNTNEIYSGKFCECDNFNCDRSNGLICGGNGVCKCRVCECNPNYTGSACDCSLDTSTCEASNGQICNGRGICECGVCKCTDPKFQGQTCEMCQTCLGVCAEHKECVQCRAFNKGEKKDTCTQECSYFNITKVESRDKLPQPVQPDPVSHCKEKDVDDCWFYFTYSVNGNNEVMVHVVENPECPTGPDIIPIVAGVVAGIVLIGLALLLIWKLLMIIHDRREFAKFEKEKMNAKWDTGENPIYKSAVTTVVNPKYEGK

Structure (SMILES) | pIC50 [1] | pIC50 [2]
N=C(N)Nc1cccc(C(=O)NCC(=O)NC[C@H](NC(=O)c2c(Cl)cc(N3CCOCC3)cc2Cl)C(=O)O)c1 | > 7.00 | 
N=C(N)Nc1ccc2c(c1)C(NCC(=O)NC[C@H](NC(=O)c1c(Cl)cccc1Cl)C(=O)O)CCO2 (stereo partly drawn) | > 6.00 | 
N=C(N)Nc1ccc2ncn(CCC(=O)NC[C@H](NC(=O)c3c(Cl)cccc3Cl)C(=O)O)c2c1 | > 5.00 | 
CS(=O)(=O)c1ccc(-c2cc(Cl)c(C(=O)N[C@@H](CNC(=O)CNC(=O)c3cccc(N=C(N)N)c3)C(=O)O)c(Cl)c2)cc1 [SU15210-0110-01, (S)-2-(3,5-dichloro-4′-(methylsulfonyl)biphenyl-4-ylcarboxamido)-3-(2-(3 guanidinobenzamido)acetamido)propanoic acid] |  | > 7.00
O=C(CCc1ccc2c(n1)NCCC2)NCC(=O)NC[C@H](NC(=O)c1c(Cl)cc(-c2ccccc2)cc1Cl)C(=O)O [SU15210-0151-01, (S)-2-(3,5-dichloro-[1,1′-biphenyl]-4-carboxamido)-3-(2-(3-(5,6,7,8-tetrahydro-1,8-naphthyridin-2-yl)propanamido)acetamido)propanoic acid] |  | 6.00 to 7.00
CNc1cccc(CCC(=O)NCC(=O)NC[C@H](NC(=O)c2c(Cl)cc(-c3ccccc3)cc2Cl)C(=O)O)n1 [SU15210-0152-01, (S)-2-(3,5-dichlorobiphenyl-4-ylcarboxamido)-3-(2-(3-(6-(methylamino)pyridin-2-yl)propanamido)acetamido)propanoic acid] |  | 5.00 to 6.00
CN(CC(=O)NC[C@H](NC(=O)c1c(Cl)cc(-c2ccccc2)cc1Cl)C(=O)O)C(=O)c1cccc(NC(=N)N)c1 [SU15210-0202-01, (S)-2-(3,5-dichlorobiphenyl-4-ylcarboxamido)-3-(2-(3 guanidino-N-methylbenzamido)acetamido)propanoic acid] |  | 6.00 to 7.00
COC(=O)[C@H](CNC(=O)CNC(=O)c1cc(C#N)cc(N/C(=N/C(=O)OC(C)(C)C)NC(=O)OC(C)(C)C)c1)NC(=O)c1c(Cl)cc(-c2ccccc2)cc1Cl [SU15210-0206-01] |  | > 7.00
O=C(CNC(=O)c1cccc(NC2=NCC(F)CN2)c1)NC[C@H](NC(=O)c1c(Cl)cc(-c2ccc3cn[nH]c3c2)cc1Cl)C(=O)O (stereo partly drawn) [SU15210-0241-01, (2S)-2-(2,6-dichloro-4-(1H-indazol-6-yl)benzamido)-3-(2-(3-(5-fluoro-1,4,5,6-tetrahydropyrimidin-2-ylamino)benzamido)acetamido)propanoic acid] |  | > 7.00
O=C(CNC(=O)c1cccc(NC2=NCC(F)CN2)c1)NC[C@H](NC(=O)c1c(Cl)cc(N2CCOCC2)cc1Cl)C(=O)O (stereo partly drawn) [SU15210-0248-01, (2 S)-2-(2,6-dichloro-4-morpholinobenzamido)-3-(2-(3-(5-fluoro-1,4,5,6-tetrahydropyrimidin-2-ylamino)benzamido)acetamido)propanoic acid] |  | > 7.00
O=C(CNC(=O)c1cccc(NC2=NCC(F)CN2)c1)NC[C@H](NC(=O)c1c(Cl)cc(N2CCS(=O)(=O)CC2)cc1Cl)C(=O)O (stereo partly drawn) [SU15210-0253-01] |  | > 7.00
C[C@@H](NC(=O)c1cccc(NC2=NCC(F)CN2)c1)C(=O)NC[C@H](NC(=O)c1c(Cl)cc(-c2ccccc2)cc1Cl)C(=O)O (stereo partly drawn) [SU15210-0254, (2S)-2-[(2,6-dichloro-4-phenyl-benzoyl)amino]-3-[[(2R)-2-[[3-[(5-fluoro-1,4,5,6-tetrahydropyrimidin-2-yl)amino]benzoyl]amino]propanoyl]amino]propanoic acid] |  | 6.00 to 7.00
O=C(CNC(=O)c1cccc(NC2=NCC(F)(F)CN2)c1)NC[C@H](NC(=O)c1c(Cl)cc(N2CCOCC2)cc1Cl)C(=O)O [SU15210-0271-01, (S)-2-(2,6-dichloro-4-morpholinobenzamido)-3-(2-(3-(5,5-difluoro-1,4,5,6-tetrahydropyrimidin-2-ylamino)benzamido)acetamido)propanoic acid] |  | > 7.00

Further lines, results first:

pIC50 [1] | pIC50 [2] | Structure (SMILES)
> 7.00 |  | N=C(N)Nc1cccc(C(=O)NCC(=O)NC[C@H](NC(=O)c2c(Cl)cccc2Cl)C(=O)O)c1
> 7.00 |  | O=C(CNC(=O)c1cccc(NC2=NCCCN2)c1)NC[C@H](NC(=O)c1c(Cl)cccc1Cl)C(=O)O
> 7.00 |  | N=C(N)Nc1cccc(C(=O)NCC(=O)NC[C@H](NC(=O)c2c(Cl)cc(-c3ccccc3)cc2Cl)C(=O)O)c1
> 6.00 |  | Cc1cccc(Cl)c1C(=O)N[C@@H](CNC(=O)CNC(=O)c1cccc(NC(=N)N)c1)C(=O)O
> 5.00 |  | Cc1ccnc(Nc2cccc(C(=O)NCC(=O)NC[C@H](NC(=O)c3c(Cl)cccc3Cl)C(=O)O)c2)c1
> 5.00 |  | N#C/N=C(\N)Nc1cccc(C(=O)NCC(=O)NC[C@@H](NC(=O)c2c(Cl)cccc2Cl)C(=O)O)c1
> 4.30 |  | COc1ccc(Nc2cccc(C(=O)NCC(=O)NC[C@H](NC(=O)c3c(Cl)cccc3Cl)C(=O)O)c2)nc1
 | > 7.00 | O=C(CNC(=O)c1cccc(NC2=NCCCN2)c1)NC[C@H](NC(=O)c1c(Cl)cc(-c2ccccc2)cc1Cl)C(=O)O [SU15210-0147-01, (S)-2-(3,5-dichlorobiphenyl-4-ylcarboxamido)-3-(2-(3-(1,4,5,6-tetrahydropyrimidin-2-ylamino)benzamido)acetamido)propanoic acid]
 | 6.00 to 7.00 | C/N=C(\NC)Nc1cccc(C(=O)NCC(=O)NC[C@H](NC(=O)c2c(Cl)cc(-c3ccccc3)cc2Cl)C(=O)O)c1 [SU15210-0193-01, (S,E)-2-(3,5-dichlorobiphenyl-4-ylcarboxamido)-3-(2-(3-(2,3-dimethylguanidino)benzamido)acetamido)propanoic acid]
 | > 7.00 | O=C(CNC(=O)c1cccc(NC2=NCC(F)(F)CN2)c1)NC[C@H](NC(=O)c1c(Cl)cc(-c2ccccc2)cc1Cl)C(=O)O [SU15210-0200, (S)-2-(3,5-dichlorobiphenyl-4-ylcarboxamido)-3-(2-(3-(5,5-difluoro-1,4,5,6-tetrahydropyrimidin-2-ylamino)benzamido)acetamido)propanoic acid]
 | > 7.00 | O=C(CNC(=O)c1cccc(NC2=NCCCS2)c1)NC[C@H](NC(=O)c1c(Cl)cc(-c2ccccc2)cc1Cl)C(=O)O [SU15210-0230-01]
 | > 7.00 | O=C(CNC(=O)c1cccc(NC2=NCC(F)(F)CN2)c1)NC[C@H](NC(=O)c1c(Cl)cc(-c2ccc3cn[nH]c3c2)cc1Cl)C(=O)O [SU15210-0272-01, (S)-2-(2,6-dichloro-4-(1H-indazol-6-yl)benzamido)-3-(2-(3-(5,5-difluoro-1,4,5,6-tetrahydropyrimidin-2-ylamino)benzamido)acetamido)propanoic acid]
> 7.00 |  | N#C/N=C(\N)Nc1cccc(C(=O)NCC(=O)NC[C@H](NC(=O)c2c(Cl)cccc2Cl)C(=O)O)c1 [drawing 107]
> 6.00 |  | N#C/N=C(\N)Nc1cccc(C(=O)NCC(=O)NC[C@H](NC(=O)c2c(Cl)cccc2Cl)C(=O)O)c1 [drawing 110]
